Earlier results as cited in patent US20100209348A1, “METHODS FOR DETERMINING LIPOSOME BIOEQUIVALENCE” (Arondo Pharma, Inc., priority 2009, published 2010).
Counter-ions that a name gives are not always drawn.

Settings: IV infusion up to 60 min, up to 60 mg/m^2 every 3 weeks (dose rate 20 mg/m^2/week)

## COc1cccc2c1C(=O)c1c(O)c3c(c(O)c1C2=O)C[C@@](O)(C(=O)CO)C[C@@H]3O[C@H]1C[C@H](N)[C@H](O)[C@H](C)O1 [doxorubicin, Doxorubicin HCl]
  clinically significant PPE: does not typically cause clinically significant PPE
